Consider three compounds from article PMC10787358 (Science translational medicine, 2023).

SMILES strings stand for the structures.

The test system of one experiment is SARS-CoV-2. Details: species or system hACE2 transgenic mice. Particulars: mouse, in vivo.
Experiment [1] concerns SARS-CoV-2 Beta and Delta variants. Type of experiment: cell-based.
Experiment [2] has as its system SARS-CoV-2 WT, Beta, Delta, Omicron BA.2. Type of experiment: cell-based. Particulars: UDCA 10 μM, ML364 4 μM, MS102 4 μM, 48 h.

For `Cc1ccc(S(=O)(=O)Nc2cc(C(F)(F)F)ccc2C(=O)Nc2nc(-c3ccccc3)cs2)cc1` [ML364], the “therapeutic effectiveness against SARS-CoV-2 infection” value in the experiment with SARS-CoV-2 is given as “substantial therapeutic potential”. Besides, the “inhibition of authentic SARS-CoV-2 variants” value in experiment [1] was “broad inhibition”.
Regarding `Cc1ccc(S(=O)(=O)Nc2ccc(C(F)(F)F)cc2C(=O)Nc2nc(-c3ccc(Br)cc3)cs2)cc1` [MS102], the “inhibition of infection of Calu-3 cells by authentic SARS-CoV-2 (TCID50)” value in experiment [2] was “superior activity”.
As to `C[C@H](CCC(=O)O)[C@H]1CC[C@H]2[C@@H]3[C@@H](O)C[C@@H]4C[C@H](O)CC[C@]4(C)[C@H]3CC[C@]12C` [UDCA, ursodeoxycholic acid], the “inhibition of infection of Calu-3 cells by authentic SARS-CoV-2 (TCID50)” value in experiment [2] was “exhibited efficacy”.
